Data reported in US8143270B2, “2-amino 1H-in-imidazo ring systems and methods” (3M Innovative Properties Company, priority 2004, dated 2012).
Counter-ions that a name gives are not always drawn.

Tested on: not given
Assay: not given
Conditions: not given

| Compound | melting point |
| --- | --- |
| CC(C)(O)Cn1c(N)nc2c(N)nc3ccccc3c21 (as salt: hydrobromid) [Example 2, 1-(2,4-Diamino-1H-imidazo[4,5-c]quinolin-1-yl)-2-methylpropan-2-ol hydrobromide] | > 230 °C |
| CC(C)Cn1c(N)nc2c(N)nc3ccccc3c21 [Example 1, 1-(2-Methylpropyl)-1H-imidazo[4,5-c]quinoline-2,4-diamine] | > 250 °C |
| CC(C)(Cn1c(N)nc2c(N)nc3ccccc3c21)NS(C)(=O)=O [Example 3, N-[2-(2,4-Diamino-1H-imidazo[4,5-c]quinolin-1-yl)-1,1-dimethylethyl]methanesulfonamide] | > 230 °C |
| Nc1nc2ccccc2c2c1nc(N)n2Cc1ccccc1 [Example 4, 1-Benzyl-1H-imidazo[4,5-c]quinoline-2,4-diamine] | 254 to 256 °C |
| CCNc1nc2c(N)nc3ccccc3c2n1CC(C)C [Example 6, N^2-Ethyl-1-(2-methylpropyl)-1H-imidazo[4,5-c]quinoline-2,4-diamine] | 188 to 190 °C |
| CCNc1nc2c(N)nc3ccccc3c2n1CC(C)(C)O [Example 7, 1-[4-Amino-2-(ethylamino)-1H-imidazo[4,5-c]quinolin-1-yl]-2-methylpropan-2-ol] | 233 to 235 °C |
| COCCNc1nc2c(N)nc3ccccc3c2n1CC(C)(C)O [Example 8, 1-{4-Amino-2-[(2-methoxyethyl)amino]-1H-imidazo[4,5-c]quinolin-1-yl}-2-methylpropan-2-ol] | 176 to 178 °C |
| COCCCNc1nc2c(N)nc3ccccc3c2n1CC(C)(C)O [Example 9, 1-{4-Amino-2-[(3-methoxypropyl)amino]-1H-imidazo[4,5-c]quinolin-1-yl}-2-methylpropan-2-ol] | 209 to 210 °C |
| CCNc1nc2c(N)nc(C)c(C)c2n1CC(C)C [Example 16, N^2-Ethyl-6,7-dimethyl-1-(2-methylpropyl)-1H-imidazo[4,5-c]pyridine-2,4-diamine] | 168 to 170 °C |
| CC(C)(O)Cn1c(N)nc2c(N)nc3c(c21)CCCC3 [Example 18, 1-(2,4-Diamino-6,7,8,9-tetrahydro-1H-imidazo[4,5-c]quinolin-1-yl)-2-methylpropan-2-ol] | > 270 °C |
| CC(C)(F)Cn1c(N)nc2c(N)nc3ccccc3c21 [Example 43, 1-(2-Fluoro-2-methylpropyl)-1H-imidazo[4,5-c]quinoline-2,4-diamine] | 251 °C |
| C[C@H](c1ccccc1)n1c(N)nc2c(N)nc3ccccc3c21 [Example 44, 1-[(1R)-1-Phenylethyl]-1H-imidazo[4,5-c]quinoline-2,4-diamine] | 156 to 160 °C |
| C[C@@H](c1ccccc1)n1c(N)nc2c(N)nc3ccccc3c21 [Example 45, 1-[(1S)-1-Phenylethyl]-1H-imidazo[4,5-c]quinoline-2,4-diamine] | 135 to 140 °C |
| Nc1nc2ccccc2c2c1nc(N)n2CC1(O)CCC1 [Example 46, 1-[(2,4-Diamino-1H-imidazo[4,5-c]quinolin-1-yl)methyl]cyclobutanol] | 295 °C (dec.) |
| COC(=O)Nc1nc2c(N)nc3ccccc3c2n1CC(C)(C)O [Example 181, Methyl [4-amino-1-(2-hydroxy-2-methylpropyl)-1H-imidazo[4,5-c]quinolin-2-yl]carbamate] | 255 to 258 °C (dec.) |

Tested on: mouse macrophage cell line Raw 264.7
Assay: TNF-α inhibition in mouse cells
Format: cell-based
Conditions: Raw 264.7 cells stimulated by lipopolysaccharide (LPS); single concentration 5 μM or dose response 0.03-10 μM; TNF-α by ELISA
Protocol: The compounds of Formulas I, II, III, IV, V, VI, VII, and VIII are useful as immune response modifiers (IRMs) due to their ability to modulate cytokine biosynthesis (e.g., induce or inhibit the biosynthesis or production of one or more cytokines) and otherwise modulate the immune response when administered to animals. Compounds can be tested per the test procedures described in the Examples Section. Compounds can be tested for induction of cytokine biosynthesis by incubating human peripheral blood mononuclear cells (PBMC) in a culture with the compound(s) at a concentration range of 30 to 0.014 μM and analyzing for interferon (α) or tumor necrosis factor (α) in the culture supernatant. Compounds can be tested for inhibition of cytokine biosynthesis by incubating mouse macrophage cell line Raw 264.7 in a culture with the compound(s) at a single concentration of, for example, 5 μM and analyzing for tumor necrosis factor (α) in the culture supernatant. The ability to modulate cytokine biosynthesis, for example, induce the biosynthesis of one or more cytokines, makes the compounds useful in the treatment of a variety of conditions such as viral diseases and neoplastic diseases, that are responsive to such changes in the immune response. […]
(§1) Raw cells (ATCC) are harvested by gentle scraping and then counted. […]
The compounds are solubilized in dimethyl sulfoxide (DMSO). […] LPS (Lipopolysaccaride from Salmonella typhimurium, Sigma-Aldrich) is diluted with colorless RPMI to the EC70 concentration as measured by a dose response assay. […]
Following the incubation the supernatant is removed with a pipet. TNF-α concentration is determined by ELISA using a mouse TNF-α kit (from Biosource International, Camarillo, Calif.). […]
as §1
The compounds are solubilized in dimethyl sulfoxide (DMSO). […] LPS (Lipopolysaccaride from Salmonella typhimurium, Sigma-Aldrich) is diluted with colorless RPMI to the EC70 concentration as measured by dose response assay. […]

| Compound | inhibition of production of tumor necrosis factor α (TNF-α) |
| --- | --- |
| CCNc1nc2c(N)nc3ccccc3c2n1CC(C)(C)O [Example 7, 1-[4-Amino-2-(ethylamino)-1H-imidazo[4,5-c]quinolin-1-yl]-2-methylpropan-2-ol] | inhibiting production of tumor necrosis factor α (TNF-α) |
| COCCNc1nc2c(N)nc3ccccc3c2n1CC(C)(C)O [Example 8, 1-{4-Amino-2-[(2-methoxyethyl)amino]-1H-imidazo[4,5-c]quinolin-1-yl}-2-methylpropan-2-ol] | inhibiting production of tumor necrosis factor α (TNF-α) |
| COCCCNc1nc2c(N)nc3ccccc3c2n1CC(C)(C)O [Example 9, 1-{4-Amino-2-[(3-methoxypropyl)amino]-1H-imidazo[4,5-c]quinolin-1-yl}-2-methylpropan-2-ol] | inhibiting production of tumor necrosis factor α (TNF-α) |
